Experimental findings from patent publication US20250051344A1, “BIFUNCTIONAL SELECTIVE DEGRADERS OF SMARCA2 AND THERAPEUTIC USES THEREOF” (Nurix Therapeutics, Inc., priority 2023, published 2025) are described below.

Experiment [1] addresses T1, SMARCA2 (Homo sapiens, UniProt P51531).
T1 construct: endogenous in cells
The experiment in a line: SMARCA2 Cellular Degradation Assay (Western blot analysis on Jess platform). The following applies: for DC50 / Dmax: cellular degradation; for Fold Selectivity SMARCA4/2: ratio DC50 SMARCA4 / DC50 SMARCA2. It is filed as cell-based. In outline:
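SMARCA2 protein in lysates of cells isolated from tumors was measured by capillary immunoassay at 5 μg protein per capillary, using actin as loading reference; degradation was expressed as percent SMARCA2 left compared with vehicle-treated samples.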

Experiment [2] has as its target T2, SMARCA4 (Homo sapiens, UniProt P51532).
T2 construct: endogenous in cells
The experiment can be described thus: Cellular degradation assay, SMARCA4 (Table 1). It is filed as cell-based.

T2 sequence (P51532 whole entry, species assumed): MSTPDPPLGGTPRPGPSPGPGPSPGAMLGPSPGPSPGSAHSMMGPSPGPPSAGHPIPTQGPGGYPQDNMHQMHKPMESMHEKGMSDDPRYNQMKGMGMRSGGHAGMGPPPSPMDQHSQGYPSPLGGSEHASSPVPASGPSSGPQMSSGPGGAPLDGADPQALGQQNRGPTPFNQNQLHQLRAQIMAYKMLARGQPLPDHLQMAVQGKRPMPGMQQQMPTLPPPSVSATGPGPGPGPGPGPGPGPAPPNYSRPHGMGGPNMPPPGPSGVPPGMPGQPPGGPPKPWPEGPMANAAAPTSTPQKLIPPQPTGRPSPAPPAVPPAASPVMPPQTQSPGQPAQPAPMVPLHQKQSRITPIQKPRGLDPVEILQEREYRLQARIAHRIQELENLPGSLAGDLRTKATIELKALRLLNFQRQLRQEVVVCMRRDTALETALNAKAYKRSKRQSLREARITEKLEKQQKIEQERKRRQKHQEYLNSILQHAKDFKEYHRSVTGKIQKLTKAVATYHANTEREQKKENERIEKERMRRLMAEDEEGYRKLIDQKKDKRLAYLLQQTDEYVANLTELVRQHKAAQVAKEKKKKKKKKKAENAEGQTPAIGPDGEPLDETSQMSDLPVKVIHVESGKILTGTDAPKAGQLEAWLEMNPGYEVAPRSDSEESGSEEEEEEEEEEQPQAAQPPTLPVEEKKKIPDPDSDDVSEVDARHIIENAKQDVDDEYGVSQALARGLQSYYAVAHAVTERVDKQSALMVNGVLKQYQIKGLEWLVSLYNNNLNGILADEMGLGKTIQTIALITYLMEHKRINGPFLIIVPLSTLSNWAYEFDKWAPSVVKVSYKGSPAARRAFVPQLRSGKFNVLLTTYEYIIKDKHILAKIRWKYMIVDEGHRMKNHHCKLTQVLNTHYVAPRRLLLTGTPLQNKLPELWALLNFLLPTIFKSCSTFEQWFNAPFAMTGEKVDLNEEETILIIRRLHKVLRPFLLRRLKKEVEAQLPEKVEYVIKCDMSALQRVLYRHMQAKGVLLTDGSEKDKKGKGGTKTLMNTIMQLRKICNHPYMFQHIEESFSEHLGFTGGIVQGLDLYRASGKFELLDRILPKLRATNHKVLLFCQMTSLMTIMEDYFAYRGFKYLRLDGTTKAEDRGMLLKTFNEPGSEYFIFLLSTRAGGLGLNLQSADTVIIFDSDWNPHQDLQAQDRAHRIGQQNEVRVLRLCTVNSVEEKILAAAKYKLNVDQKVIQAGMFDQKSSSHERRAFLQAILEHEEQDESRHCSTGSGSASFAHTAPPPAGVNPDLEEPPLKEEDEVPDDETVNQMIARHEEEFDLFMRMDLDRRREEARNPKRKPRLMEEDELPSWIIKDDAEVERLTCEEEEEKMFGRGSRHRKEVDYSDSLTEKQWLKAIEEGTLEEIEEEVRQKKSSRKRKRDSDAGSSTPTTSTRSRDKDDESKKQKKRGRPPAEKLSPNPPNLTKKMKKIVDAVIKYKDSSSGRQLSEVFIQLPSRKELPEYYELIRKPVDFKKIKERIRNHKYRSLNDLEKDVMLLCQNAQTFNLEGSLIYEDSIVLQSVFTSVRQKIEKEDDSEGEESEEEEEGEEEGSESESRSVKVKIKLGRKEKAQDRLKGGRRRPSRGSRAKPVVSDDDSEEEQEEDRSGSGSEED
T1 sequence (P51531 whole entry, species assumed): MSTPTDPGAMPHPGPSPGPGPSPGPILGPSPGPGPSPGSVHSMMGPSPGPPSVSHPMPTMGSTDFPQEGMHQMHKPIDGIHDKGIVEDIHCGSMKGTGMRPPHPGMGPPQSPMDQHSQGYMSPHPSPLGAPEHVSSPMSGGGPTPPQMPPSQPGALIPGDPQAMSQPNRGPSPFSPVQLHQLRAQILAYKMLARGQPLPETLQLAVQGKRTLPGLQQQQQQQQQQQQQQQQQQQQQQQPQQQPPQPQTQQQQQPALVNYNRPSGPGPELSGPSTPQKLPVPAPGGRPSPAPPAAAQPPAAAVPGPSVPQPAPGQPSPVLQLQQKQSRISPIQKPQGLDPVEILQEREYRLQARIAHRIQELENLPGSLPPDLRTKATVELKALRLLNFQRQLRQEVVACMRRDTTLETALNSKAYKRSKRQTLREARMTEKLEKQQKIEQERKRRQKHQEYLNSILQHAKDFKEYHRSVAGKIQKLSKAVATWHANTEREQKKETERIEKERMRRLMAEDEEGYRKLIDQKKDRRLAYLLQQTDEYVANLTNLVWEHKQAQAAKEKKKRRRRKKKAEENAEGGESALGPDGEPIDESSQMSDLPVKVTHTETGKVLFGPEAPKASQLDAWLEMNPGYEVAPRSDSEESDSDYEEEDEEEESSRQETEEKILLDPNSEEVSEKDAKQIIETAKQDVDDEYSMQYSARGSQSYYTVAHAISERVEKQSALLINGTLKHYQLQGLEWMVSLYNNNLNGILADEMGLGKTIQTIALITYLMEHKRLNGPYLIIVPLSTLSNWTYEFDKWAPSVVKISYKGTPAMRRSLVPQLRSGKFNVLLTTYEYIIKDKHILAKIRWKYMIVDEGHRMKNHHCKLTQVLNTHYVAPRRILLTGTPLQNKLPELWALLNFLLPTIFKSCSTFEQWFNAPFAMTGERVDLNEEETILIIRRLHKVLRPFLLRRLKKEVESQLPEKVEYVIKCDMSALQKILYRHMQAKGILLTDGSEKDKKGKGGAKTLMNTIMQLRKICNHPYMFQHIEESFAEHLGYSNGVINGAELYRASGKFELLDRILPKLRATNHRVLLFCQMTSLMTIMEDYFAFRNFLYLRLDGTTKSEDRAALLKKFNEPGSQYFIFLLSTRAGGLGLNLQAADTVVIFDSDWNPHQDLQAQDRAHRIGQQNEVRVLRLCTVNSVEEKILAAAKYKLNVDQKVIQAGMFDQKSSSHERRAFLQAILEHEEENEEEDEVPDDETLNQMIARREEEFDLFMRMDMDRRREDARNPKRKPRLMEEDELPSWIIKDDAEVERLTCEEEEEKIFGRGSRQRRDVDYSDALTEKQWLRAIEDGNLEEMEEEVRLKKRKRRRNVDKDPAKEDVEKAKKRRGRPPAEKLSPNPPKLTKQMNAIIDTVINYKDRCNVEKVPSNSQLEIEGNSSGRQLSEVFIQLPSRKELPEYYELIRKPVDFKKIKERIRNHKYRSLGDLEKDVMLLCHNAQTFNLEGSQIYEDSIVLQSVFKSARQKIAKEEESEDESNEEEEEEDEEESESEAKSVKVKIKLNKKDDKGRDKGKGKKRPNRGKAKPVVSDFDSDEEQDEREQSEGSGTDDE

On to `Cc1ccnn1C1(C(=O)N(C)C2CCN(CCC3CCN(c4ccc(C5CCC(=O)NC5=O)c(F)c4)CC3)CC2)CCN(c2cnnc(-c3ccccc3O)c2)CC1` (racemic) [Example 65, rac-N-{1-[2-(1-{4-[(3R)-2,6-dioxopiperidin-3-yl]-3-fluorophenyl}piperidin-4-yl)ethyl]piperidin-4-yl}-1-[6-(2-hydroxyphenyl)pyridazin-4-yl]-n-methyl-4-(5-methyl-1H-pyrazol-1-yl)piperidine-4-carboxamide], for which, in experiment [1], it took 3.33 nM to reach half-maximal degradation (DC50), the Dmax stood at 89.2% and the “Fold Selectivity SMARCA4/2” value amounted to 27. For the same compound, in experiment [2], the DC50 was determined as 88.6 nM and the Dmax came out at 55.4%.
For the compound `O=C1CCC(NC(=O)c2cc(N3CCN(C(=O)C4(c5ccccc5)CCN(c5cnnc(-c6ccccc6O)c5)CC4)CC3)ccn2)C(=O)N1` (racemic) [Example 1, rac-N-[(3r)-2,6-dioxopiperidin-3-yl]-4-(4-{1-[6-(2-hydroxyphenyl)pyridazin-4-yl]-4-phenylpiperidine-4-carbonyl}piperazin-1-yl)pyridine-2-carboxamide], the values for the Dmax in experiment [1] and in experiment [2] were 35.2% and 13%, respectively. For the same compound, the “Fold Selectivity SMARCA4/2” value in experiment [1] was 1.
Consider `CC1(NC(=O)C2(c3ccccc3)CCN(c3cnnc(-c4ccccc4O)c3)CC2)CCN(C(=O)CN2CCC(c3ccc(N[C@@H]4CCC(=O)NC4=O)cc3)CC2)CC1` (racemic) [Example 86, rac-(r)-n-(1-(2-(4-(4-((2,6-dioxopiperidin-3-yl)amino)phenyl)piperidin-1-yl)acetyl)-4-methylpiperidin-4-yl)-1-(6-(2-hydroxyphenyl)pyridazin-4-yl)-4-phenylpiperidine-4-carboxamide], for which, in experiment [1], the half-maximal degradation concentration (DC50) was 22.1 nM, the Dmax is 70.5% and the “Fold Selectivity SMARCA4/2” value is recorded as 452. The compound further registered a Dmax in experiment [2] of 53.7%.
The corresponding values for `CN(C(=O)C1(c2cnn(C)c2)CCN(c2cnnc(-c3ccccc3O)c2)CC1)C1CCN(CCC2CCN(c3ccc(C4CCC(=O)NC4=O)cc3)CC2)CC1` (racemic) [Example 94, rac-N-{1-[2-(1-{4-[(3R)-2,6-dioxopiperidin-3-yl]phenyl}piperidin-4-yl)ethyl]piperidin-4-yl}-1-[6-(2-hydroxyphenyl)pyridazin-4-yl]-N-methyl-4-(1-methyl-1H-pyrazol-4-yl)piperidine-4-carboxamide] are 2.24 nM, 87.3%, 4454 and 33%.
As to `CC(C)c1cc(C2(C(=O)N(C)C3CCN(CC4CCN(c5ccc(C6CCC(=O)NC6=O)cc5)CC4)CC3)CCN(c3cnnc(-c4ccccc4O)c3)CC2)no1` (racemic) [Example 98, rac-N-{1-[(1-{4-[(3R)-2,6-dioxopiperidin-3-yl]phenyl}piperidin-4-yl)methyl]piperidin-4-yl}-1-[6-(2-hydroxyphenyl)pyridazin-4-yl]-N-methyl-4-[5-(propan-2-yl)-1,2-oxazol-3-yl]piperidine-4-carboxamide], in experiment [1], half-maximal degradation (DC50) was put at 5.55 nM, the Dmax came out at 86.7% and the “Fold Selectivity SMARCA4/2” value was 10. In experiment [2], the DC50 was 57.9 nM and the Dmax came to 58.1%.
Take `O=C1CCC(c2ccc(N3CCN(C(=O)CC4CCN(C(=O)C5(c6ccccc6)CCN(c6cnnc(-c7ccccc7O)c6)CC5)CC4)CC3)cc2)C(=O)N1` (racemic) [Example 18, rac-(3R)-3-(4-{4-[2-(1-{1-[6-(2-hydroxyphenyl)pyridazin-4-yl]-4-phenylpiperidine-4-carbonyl}piperidin-4-yl)acetyl]piperazin-1-yl}phenyl)piperidine-2,6-dione]: in experiment [1], the Dmax was 44.1% and the “Fold Selectivity SMARCA4/2” value is 1. The Dmax in experiment [2] is 27.7%.
`Cc1ccnn1C1(C(=O)N(C)C2CCN(CC3CCN(c4ccc(C5CCC(=O)NC5=O)cc4)CC3)CC2)CCN(c2cnnc(-c3ccccc3O)c2)CC1` (racemic) [Example 96, rac-N-{1-[(1-{4-[(3R)-2,6-dioxopiperidin-3-yl]phenyl}piperidin-4-yl)methyl]piperidin-4-yl}-1-[6-(2-hydroxyphenyl)pyridazin-4-yl]-N-methyl-4-(5-methyl-1H-pyrazol-1-yl)piperidine-4-carboxamide]: in experiment [1], the DC50 was 4.3 nM, the Dmax amounted to 87.1% and the “Fold Selectivity SMARCA4/2” value came to 9. In experiment [2], this compound gave a DC50 of 39.6 nM and a Dmax of 60%.
Consider `C[C@@H](C1CCN(c2ccc([C@H]3CCC(=O)NC3=O)cn2)CC1)N1CC2(CN(C(=O)C3(c4ccccc4)CCN(c4cnnc(-c5ccccc5O)c4)CC3)C2)C1` (racemic) [Example 141, (3RS&)-3-(6-{4-[(1RS)-1-(6-{1-[6-(2-hydroxyphenyl)pyridazin-4-yl]-4-phenylpiperidine-4-carbonyl}-2,6-diazaspiro[3.3]heptan-2-yl)ethyl]piperidin-1-yl}pyridin-3-yl)piperidine-2,6-dione], for which, in experiment [1], the DC50 is 6.59 nM, the Dmax turned out to be 87% and the “Fold Selectivity SMARCA4/2” value was 5. Moreover, in experiment [2], half-maximal degradation (DC50) was put at 34.9 nM and the Dmax was found to be 71.5%.
Take `O=C1CCC(c2ccc(N3CCC(CN4CC5(C4)CN(C(=O)C4(c6cccnc6)CCN(c6cnnc(-c7ccccc7O)c6)CC4)C5)CC3)cc2)C(=O)N1` (racemic) [Example 34, rac-(3R)-3-(4-{4-[(6-{1-[6-(2-hydroxyphenyl)pyridazin-4-yl]-4-(pyridin-3-yl)piperidine-4-carbonyl}-2,6-diazaspiro[3.3]heptan-2-yl)methyl]piperidin-1-yl}phenyl)piperidine-2,6-dione]: in experiment [1], the 50% degradation concentration (DC50) came out at 47 nM, the Dmax stood at 58.6% and the “Fold Selectivity SMARCA4/2” value is listed as 212.72. Further, in experiment [2], the Dmax was 30.6%.
In the case of `Cc1ccnn1C1(C(=O)N(C)C2CCN(C3COC4(CCN(c5ccc([C@H]6CCC(=O)NC6=O)cc5)CC4)C3)CC2)CCN(c2cnnc(-c3ccccc3O)c2)CC1` (mixture of isomers) [Example 63, N-{1-[(3RS)-8-{4-[(3R)-2,6-dioxopiperidin-3-yl]phenyl}-1-oxa-8-azaspiro[4.5]decan-3-yl]piperidin-4-yl}-1-[6-(2-hydroxyphenyl)pyridazin-4-yl]-n-methyl-4-(5-methyl-1H-pyrazol-1-yl)piperidine-4-carboxamide], in experiment [1], the DC50 is 8.77 nM, the Dmax came to 80.5% and the “Fold Selectivity SMARCA4/2” value is listed as 1140. The Dmax in experiment [2] stood at 32.2%.
`CN(C(=O)C1(c2cnn(C)c2)CCN(c2cnnc(-c3ccccc3O)c2)CC1)C1CCN(C2COC3(CCN(c4ccc([C@H]5CCC(=O)NC5=O)cc4)CC3)C2)CC1` (mixture of isomers) [Example 64, N-{1-[(3RS)-8-{4-[(3R)-2,6-dioxopiperidin-3-yl]phenyl}-1-oxa-8-azaspiro[4.5]decan-3-yl]piperidin-4-yl}-1-[6-(2-hydroxyphenyl)pyridazin-4-yl]-n-methyl-4-(1-methyl-1H-pyrazol-4-yl)piperidine-4-carboxamide]: in experiment [1], the DC50 was 5.51 nM, the maximal degradation (Dmax) came to 81.3% and the “Fold Selectivity SMARCA4/2” value stood at 1815. The same compound registered a Dmax in experiment [2] of 30.4%.
For `O=C1CC[C@H](c2ccc(N3CCC(CCN4CCC(S(=O)(=O)NCC5(c6ccccc6)CCN(c6cnnc(-c7ccccc7O)c6)CC5)CC4)CC3)cc2)C(=O)N1` (racemic) [Example 118, rac-1-(2-(1-(4-(2,6-dioxopiperidin-3-yl)phenyl)piperidin-4-yl)ethyl)-n-((1-(6-(2-hydroxyphenyl)pyridazin-4-yl)-4-phenylpiperidin-4-yl)methyl)piperidine-4-sulfonamide], in experiment [1], it took 8.85 nM to reach half-maximal degradation (DC50), the Dmax is 84% and the “Fold Selectivity SMARCA4/2” value is listed as 4. In experiment [2], this compound yielded a DC50 of 35.5 nM and a Dmax of 76.5%.
On to `COC1(C(=O)N2CCC3(CC2)CN(CC2CCN(c4ccc([C@H]5CCC(=O)NC5=O)cc4)CC2)C3)CCN(c2cnnc(-c3ccccc3O)c2)CC1` [Example 120, (r)-3-(4-(4-((7-(1-(6-(2-hydroxyphenyl)pyridazin-4-yl)-4-methoxypiperidine-4-carbonyl)-2,7-diazaspiro[3.5]nonan-2-yl)methyl)piperidin-1-yl)phenyl)piperidine-2,6-dione], for which, in experiment [1], the DC50 is 7.6 nM, the Dmax turned out to be 78.4% and the “Fold Selectivity SMARCA4/2” value was determined as 1316. Besides, the Dmax in experiment [2] is 50%.
For `CN(C(=O)C1(c2ccnn2C)CCN(c2cnnc(-c3ccccc3O)c2)CC1)C1CCN(CCC2CCN(c3ccc(C4CCC(=O)NC4=O)cc3)CC2)CC1` (racemic) [Example 87, rac-N-{1-[2-(1-{4-[(3r)-2,6-dioxopiperidin-3-yl]phenyl}piperidin-4-yl)ethyl]piperidin-4-yl}-1-[6-(2-hydroxyphenyl)pyridazin-4-yl]-N-methyl-4-(1-methyl-1H-pyrazol-5-yl)piperidine-4-carboxamide], in experiment [1], the DC50 worked out at 2.79 nM, the Dmax was determined as 87.7% and the “Fold Selectivity SMARCA4/2” value is 3583. In addition, the Dmax in experiment [2] came to 22.5%.
In the case of `Cn1ccc(OC2(C(=O)N3CC4(CN(CCC5CCN(c6ccc(C7CCC(=O)NC7=O)c(F)c6)CC5)C4)C3)CCN(c3cnnc(-c4ccccc4O)c3)CC2)n1` (racemic) [Example 66, rac-3-(2-fluoro-4-(4-(2-(6-(1-(6-(2-hydroxyphenyl)pyridazin-4-yl)-4-((1-methyl-1H-pyrazol-3-yl)oxy)piperidine-4-carbonyl)-2,6-diazaspiro[3.3]heptan-2-yl)ethyl)piperidin-1-yl)phenyl)piperidine-2,6-dione], in experiment [1], it took 10.6 nM to reach half-maximal degradation (DC50), the Dmax came to 73.7% and the “Fold Selectivity SMARCA4/2” value is 947. This compound also gave a Dmax in experiment [2] of 20.7%.
